Columns and labels:
Details in all cases: read-out: % displacement at 10 μM
[1] = target: T1, cannabinoid receptor 1 (CB1R) (Mus musculus, UniProt P47746); test: [3H]CP55, […] competition radioligand binding, mouse brain membranes, […]
T1 construct: gene Cnr1; native receptor in mouse brain membranes

[2] = target: T1, cannabinoid receptor 1 (CB1R); test: [3H]CP55, […] competition radioligand binding, mouse brain membranes, […] (weak)
[3] = target: T1, cannabinoid receptor 1 (CB1R); test: [3H]CP55, […] competition radioligand binding, mouse brain membranes, […] (positive control)

T1 sequence (P47746 whole entry): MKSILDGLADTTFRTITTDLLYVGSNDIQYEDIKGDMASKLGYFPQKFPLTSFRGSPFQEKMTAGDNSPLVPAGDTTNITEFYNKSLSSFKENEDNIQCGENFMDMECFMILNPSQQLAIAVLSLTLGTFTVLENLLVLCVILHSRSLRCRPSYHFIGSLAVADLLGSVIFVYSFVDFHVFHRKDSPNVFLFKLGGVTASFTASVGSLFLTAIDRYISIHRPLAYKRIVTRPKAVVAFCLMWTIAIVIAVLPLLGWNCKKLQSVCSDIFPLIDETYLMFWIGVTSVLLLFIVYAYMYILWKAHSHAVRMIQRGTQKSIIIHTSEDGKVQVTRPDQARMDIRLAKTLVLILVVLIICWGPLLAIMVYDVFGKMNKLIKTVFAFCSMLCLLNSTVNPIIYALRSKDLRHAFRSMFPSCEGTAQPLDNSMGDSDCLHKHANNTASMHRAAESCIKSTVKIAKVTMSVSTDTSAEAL

| SMILES | inhibition at 10 µM [1] [%] | inhibition at 10 µM [2] [%] | also measured |
| --- | --- | --- | --- |
| CN(Cc1cnc2nc(N)nc(N)c2n1)c1ccc(C(=O)N[C@@H](CCC(=O)O)C(=O)O)cc1 [Methotrexate] | ~50 |  |  |
| COC(=O)N(C)c1c(N)nc(-c2nn(Cc3ccccc3F)c3ncccc23)nc1N [Riociguat] |  | ~20 |  |
| COc1ccc(CN=c2[nH]c(N3CCC[C@H]3CO)ncc2C(=O)NCc2ncccn2)cc1Cl [Avanafil] |  | ~30 |  |
| O=C(c1ccc(OCCN2CCCCC2)cc1)c1c(-c2ccc(O)cc2)sc2cc(O)ccc12 [Raloxifene] |  |  | inhibition at 10 µM [3]: > 50% |
| Cc1nnc(C(=O)NC(C)(C)c2nc(C(=O)NCc3ccc(F)cc3)c(O)c(=O)n2C)o1 [Raltegravir] | ~80 |  |  |
| CCCCCCCCCCCCCCCCOP(=O)([O-])OCC[N+](C)(C)C [Miltefosine] | ~60 |  |  |
| CCCCC(=O)N(Cc1ccc(-c2ccccc2-c2nnn[nH]2)cc1)[C@H](C(=O)O)C(C)C [Valsartan] |  | ~30 |  |
| Nc1nc(N)c2nc(CNc3ccc(C(=O)N[C@@H](CCC(=O)O)C(=O)O)cc3)cnc2n1 [APGA, Aminopterin] |  | ~30 |  |

— article PMC10747202, “Computational and Experimental Drug Repurposing of FDA-Approved Compounds Targeting the Cannabinoid Receptor CB1” (Pharmaceuticals, 2023)
